In US9469630B2, “Sustained-release formulation for injection” (SUMITOMO DAINIPPON PHARMA CO., LTD., priority 2010, dated 2016):

Test: Solubility in water
Format: physicochemical

## Cl.O=C1[C@@H]2[C@H]3CC[C@H](C3)[C@@H]2C(=O)N1C[C@@H]1CCCC[C@H]1CN1CCN(c2nsc3ccccc23)CC1 [Compound 1, N-[4-[4-(1,2-benzisothiazol-3-yl)-1-piperazinyl]-(2R,3R)-2,3-tetramethylene-butyl]-(1′R,2′S,3′R,4′S)-2,3-bicyclo[2,2,1]heptanedicarboximide hydrochloride]
  solubility in water: low
